In one series the test system is transglutaminase. Nature of the series: Transglutaminase activity, fluorescein cadaverine uptake (Experiments 1-3 and 7). In kind it is cell-based, human. Conditions: for Transglutaminase activity (%): control = 100%. The method, then:
Normal human epidermal keratinocytes were cultured similarly as in Experiment 1-1, except for adding the test substances as listed in Table 3 to respective culture systems. The cultured normal human epidermal keratinocytes were added with 100 μM of fluorescein cadaverine and allowed to stand for four hours. Thereafter, the resulting cells were washed once with phosphate buffered saline and further treated with cold methanol for 10 min for cell fixation. The fixed cells were washed thrice with cold methanol, followed by the addition of phosphate buffered saline. Fluorescein cadaverine taken in the cells via transglutaminase was analyzed with Cell Imaging Station, commercialized by Molecular Probes Life Technology, France, and the analyzed fluorescent intensities were regarded as transglutaminase activities. There was provided a control system similarly as in the above, except for not adding any of the test substances. The transglutaminase activity of each test substance was evaluated as a relative value determined with the following equation using the fluorescent intensity of the control system being regarded as 100%. Equation: Transglutaminase activity (relative value (%))=[(Fluorescent intensity of a sample with any one of test substances)/(Fluorescent intensity of control)]×100
The experiment was repeated three times, and the data was subjected to the Dunnett's multiple comparisons with Control. The symbol “*” means a level of significance of p<0.01.
Except for adding the test substances listed in Tables 8 and 9 at respective concentrations shown in the tables, experiments were respectively conducted in accordance with the methods in Experiments 1-2 and 1-3 disclosed in the specification to examine the effect of the combination use of epigallocatechin gallate, which is used as an antioxidant for cosmetics, and sodium adenosine N1-oxide 5′-phosphate on the action of accelerating the cornified-envelope production and the action of enhancing the transglutaminase activity of sodium adenosine N1-oxide 5′-phosphate. A control system was provided and similarly treated as above except for not adding any test substance and was determined for both the increase rates of cornified-envelope production level and the transglutaminase activity, based on the following equations. Equation: Increase rate of cornified envelope production level (%)={[(Absorbance of a sample with any one of test substances)/(Absorbance of control)]×100}−100 Equation: Increase rate of transglutaminase (%)={[(Absorbance of a sample with any one of test substances)/(Absorbance of control)]×100}−100

For series [1], the system named is human epidermoid carcinoma cell line A-431. Nature of the series: Tight-junction function, lucifer yellow transmittance (Experiments 2 and 8). In kind it is cell-based. Conditions: for Relative transmittance of lucifer yellow (%): control = 100%. An excerpt: A human epidermoid carcinoma cell line A-431 was suspended in a media, supplemented with any of the test substances disclosed in Table 4 and having respective concentrations as indicated in the table, to give a cell concentration of 1×10^5 cells/mL, and each cell suspension was placed in an insert cup for a 12-well culture plate by two milliliters per well, followed by culturing the cells until reaching a confluent state through over the bottom surface of each well. The inner and the outer cup volumes were adjusted to give two milliliters while checking both the liquid levels of the cups were constant, and lucifer yellow as a model for permeating substance, commercialized by Life Technologies Corporation, CA, USA, was added to each inner cup to give a final concentration of 100 μM. Thereafter, the fluorescent intensities of lucifer yellow in the culture media in both the inner and the outer cups were measured, followed by calculating the percentage of the fluorescent intensity of the outer cup against that of the sum of the outer and the inner cups for use as a transmittance of lucifer yellow with the following equation. Equation: Transmittance of lucifer yellow (%)={(Absorbance of a liquid outside of an insert cup)/[(Absorbance of a liquid inside of the insert cup)+(Absorbance of the liquid outside of the insert cup)]}×100
There was provided a control system prepared similarly as above except for not adding any of the test substances, and the transmittance of lucifer yellow was regarded as 100% for evaluating the reduction of transmittance due to the reinforcement of the function of tight junction, based on the following equation. Equation: Relative transmittance (Relative percentage (%)) of lucifer yellow=[(Transmittance of a sample with any one of test substances)/(Transmittance of control)]×100
The experiment was repeated three times, and the data was subjected to the Dunnett's multiple comparisons with control. The symbol “*” means a level of significance of p<0.01.
Except for adding the test substances listed in Table 11 at respective concentrations shown in the table, experiments were respectively conducted in accordance with the methods in Experiment 2 disclosed in the specification to examine the effect of the combination use with ethylenediaminetetraacetate used as a preservative for cosmetics on the action of reinforcing the function of tight junction by sodium adenosine N1-oxide 5′-phosphate. A control system was provided and similarly treated as above except for not adding any test substance. The reduction rate of relative transmittance of lucifer yellow against that of control based on the following equation. Equation: Reduction rate of relative transmittance of lucifer yellow (%)=100−[(Transmittance of a sample with any one of test substances)/(Transmittance of control)]×100

Series [2] can be described thus: Photostability under fluorescent lamp, HPLC residual percentage (Experiment 10). In kind it is physicochemical. Conditions: fluorescent lamp about 4,000 lux, 28° C. As to the method: To 25 mg of each of the test substances in Table 13 was added each of Mcllvain buffers adjusted to different pHs to give a total volume of 50 mL and distributed to transparent glass screw bottles (5 mL) with plastic screw caps equal to the number of the test substances by 2.0 mL. Under a fluorescent lamp with about 4,000 lux at 28° C., the glass screw bottles were allowed to lay along. Sodium adenosine N1-oxide 5′-phosphate and 5′-glucosyl adenosine N1-oxide were respectively analyzed on HPLC at the initiation of the test and at eight weeks after initiating the experiment, and at the initiation of the test and at two weeks intervals up to eight weeks after the initiation, followed by taking out one of the bottles for HPLC analysis. The analysis was repeated three times and the average residual percentage of each test substance was calculated based on the area ratio against the peak area for each test substance upon HPLC chromatogram at the initiation of the experiment. […] Equation: Residual percentage (%) of test substance=[(Average peak area after a prescribed time lapse at respective pHs for each test substance)/(Average peak area at the initiation of experiment at respective pHs for each test substance)]×100

[3] abbreviates: pH 4 to 5, at the initiation of experiment.
Where [4] appears, read: pH 6 to 7, at the initiation of experiment.
Setting [5] is: pH 8 to 9, at the initiation of experiment.

Marks after values point to notes of the source that are not given here.

With “3′-α-Glucosyladenosine [reference compound]”, the “Transglutaminase activity (%)” value in the series on transglutaminase (400 μM) worked out at 269%. Besides, the “Relative transmittance of lucifer yellow (%)” value in series [1] (200 μM) is recorded as 94.5%; in series [1] (400 μM), 94.8%.
Consider “3′-α-glucosyl adenosine N1-oxide [3′-α-Glucosyladenosine N1-oxide]”, for which the “Transglutaminase activity (%)” value with transglutaminase (100 μM) is reported as 300%. Also, the “Relative transmittance of lucifer yellow (%)” value in series [1] (200 μM) is recorded as 112.3%; in series [1] (400 μM), 102.3%.
“5′-α-Glucosyladenosine [reference compound]”: in the series on transglutaminase (400 μM), the “Transglutaminase activity (%)” value stood at 33%. For the same molecule, the “Relative transmittance of lucifer yellow (%)” value in series [1] (200 μM) worked out at 94.2%; in series [1] (400 μM), 82.3%.
As for “5′-α-glucosyl adenosine N1-oxide [5′-α-Glucosyladenosine N1-oxide]”, the “Transglutaminase activity (%)” value with transglutaminase (400 μM) is on record as 404* %. Also, the “Residual percentage (%)” value in series [2] (setting [3]) is listed as 100.0%; in series [2] (pH 4 to 5, eight weeks), 9.8%; in series [2] (pH 4 to 5, eight weeks, listed as 5′-glucosyl adenosine N1-oxide), “about 10%”; in series [2] (pH 4 to 5, four weeks), 27.3%; in series [2] (pH 4 to 5, six weeks) it was 9.7%; in series [2] (pH 4 to 5, two weeks), 51.7%. Besides, the “Residual percentage (%)” value in series [2] (setting [4]) was determined as 100.0%; in series [2] (pH 6 to 7, eight weeks), 34.3%; in series [2] (pH 6 to 7, four weeks) it was 57.7%; in series [2] (pH 6 to 7, six weeks) it was 40.8%; in series [2] (pH 6 to 7, two weeks), 79.1%; in series [2] (setting [5]), 100.0%. Also, the “Residual percentage (%)” value amounted to 24.0% in series [2] (pH 8 to 9, eight weeks); 47.8% in series [2] (pH 8 to 9, four weeks); 35.4% in series [2] (pH 8 to 9, six weeks); 70.7% in series [2] (pH 8 to 9, two weeks). Also, the “Relative transmittance of lucifer yellow (%)” value is given as 97.1% in series [1] (200 μM) and 96.8% in series [1] (400 μM).
Turning to `Nc1ncnc2c1ncn2[C@@H]1O[C@H](COP(=O)(O)O)[C@@H](O)[C@H]1O` [Adenosine 5′-phosphate, reference compound], the “Transglutaminase activity (%)” value in the series on transglutaminase (400 μM) is reported as 244%. The “Relative transmittance of lucifer yellow (%)” value amounted to 90.6% in series [1] (200 μM) and 81.6% in series [1] (400 μM).
With `Nc1c2ncn([C@@H]3O[C@H](CO)[C@@H](O)[C@H]3O)c2nc[n+]1[O-]` [Adenosine N1-oxide, adenosine N1-oxide], the “Transglutaminase activity (%)” value in the series with transglutaminase (20 μM) is listed as 632* %; with transglutaminase (20 μM, listed as adenosine N1-oxide), “about 630%”. The “Residual percentage (%)” value in series [2] (setting [3]) is reported as 100.0%; in series [2] (pH 4 to 5, eight weeks), 24.6%; in series [2] (pH 4 to 5, eight weeks, listed as adenosine N1-oxide), “about 25%”; in series [2] (pH 4 to 5, four weeks), 47.2%; in series [2] (pH 4 to 5, six weeks), 25.2%; in series [2] (pH 4 to 5, two weeks), 68.8%. The “Residual percentage (%)” value in series [2] (setting [4]) came to 100.0%; in series [2] (pH 6 to 7, eight weeks) it was 66.2%; in series [2] (pH 6 to 7, four weeks), 81.6%; in series [2] (pH 6 to 7, six weeks) it was 71.3%; in series [2] (pH 6 to 7, two weeks) it was 90.6%; in series [2] (setting [5]), 100.0%. The “Residual percentage (%)” value turned out to be 63.1% in series [2] (pH 8 to 9, eight weeks); 77.2% in series [2] (pH 8 to 9, four weeks); 68.2% in series [2] (pH 8 to 9, six weeks); 83.7% in series [2] (pH 8 to 9, two weeks). In addition, the “Relative transmittance of lucifer yellow (%)” value was 71.6* % in series [1] (10 μM) and 71.3* % in series [1] (20 μM).
Consider `Nc1ncnc2c1ncn2[C@@H]1O[C@H](CO)[C@@H](O)[C@H]1O` [Adenosine, reference compound], for which, in the series with transglutaminase (400 μM), the “Transglutaminase activity (%)” value was found to be 360%. For the same molecule, the “Relative transmittance of lucifer yellow (%)” value is 77.1* % in series [1] (200 μM) and 67.4* % in series [1] (400 μM).
For `Nc1c2ncn([C@@H]3O[C@H](COP(=O)([O-])O)[C@@H](O)[C@H]3O)c2nc[n+]1[O-].[Na+]` [Sodium adenosine N1-oxide 5′-phosphate, sodium adenosine N1-oxide 5′-phosphate], the “Increase rate of transglutaminase activity (%)” value in the series on transglutaminase (15 μM, single use, increase over control) turned out to be 0.0%. The “Transglutaminase activity (%)” value was 569* % in the series with transglutaminase (20 μM) and “about 570%” in the series on transglutaminase (20 μM, listed as sodium adenosine N1-oxide 5′-phosphate). In addition, the “Residual percentage (%)” value in series [2] (setting [3]) is 100.0%; in series [2] (pH 4 to 5, eight weeks), 93.0%; in series [2] (setting [4]) it was 100.0%; in series [2] (pH 6 to 7, eight weeks) it was 88.8%; in series [2] (setting [5]), 100.0%; in series [2] (pH 8 to 9, eight weeks), 96.9%. For the same molecule, the “Reduction rate of relative transmittance of lucifer yellow (%)” value in series [1] (10 μM, single use, reduction against control) was found to be 21.6%. The results for the “Relative transmittance of lucifer yellow (%)” value in series [1] (10 μM) and in series [1] (20 μM) were 78.4% and 62.3* %, respectively. Further, in series [1] (20 μM, compared to control), the “reduction of lucifer yellow transmittance” value was “about 60%”.

Values taken from patent US10071042B2, “External dermatological agent for anti-ageing” (Hayashibara Co., Ltd., priority 2014, dated 2018).
